Source: ChEMBL document CHEMBL3871292, “Evaluation of dipeptide nitriles as inhibitors of rhodesain, a major cysteine protease of Trypanosoma brucei” (Bioorg Med Chem Lett, 2017)

Legend:
[1] = system: Trypanosoma brucei brucei; test: Antitrypanosomal activity against Trypanosoma brucei brucei Trypanosoma brucei brucei BS449 measured after 48 hrs using ATPlite-1 reagent by cell based luciferase reporter gene assay; format: functional; conditions: BS449, 48 h
[2] = system: Trypanosoma brucei brucei; test: Antitrypanosomal activity against Trypanosoma brucei brucei BS449 measured after 72 hrs using ATPlite-1 reagent by cell based luciferase reporter gene assay; format: functional
[3] = Inhibition of Trypanosoma brucei rhodesain using Cbz-Phe-Arg-AMC as substrate by fluorescence-based assay
[4] = Stability of the compound in HMI-9 medium measured after 48 hrs; format: physicochemical
[5] = system: Trypanosoma brucei brucei; test: Antitrypanosomal activity against Trypanosoma brucei brucei BS449 measured after 24 hrs using ATPlite-1 reagent by cell based luciferase reporter gene assay; format: functional; conditions: BS449, 24 h
Trypanosoma brucei [6] = test: Inhibition of Trypanosoma brucei rhodesain using Cbz-Phe-Arg-AMC as substrate at 20 uM by fluorescence-based assay
Trypanosoma brucei [7] = test: Inhibition of Trypanosoma brucei rhodesain using Cbz-Phe-Arg-AMC as substrate at 0.05 to 20 uM by fluorescence-based assay; conditions: TDE = time-dependent effect
Procathepsin L = Procathepsin L (Homo sapiens, UniProt P07711); test: Inhibition of human cathepsin L using Z-Phe-Arg-pNA as substrate measured after 10 to 80 mins by spectrophotometric method
Chain of Procathepsin L (P07711 whole entry): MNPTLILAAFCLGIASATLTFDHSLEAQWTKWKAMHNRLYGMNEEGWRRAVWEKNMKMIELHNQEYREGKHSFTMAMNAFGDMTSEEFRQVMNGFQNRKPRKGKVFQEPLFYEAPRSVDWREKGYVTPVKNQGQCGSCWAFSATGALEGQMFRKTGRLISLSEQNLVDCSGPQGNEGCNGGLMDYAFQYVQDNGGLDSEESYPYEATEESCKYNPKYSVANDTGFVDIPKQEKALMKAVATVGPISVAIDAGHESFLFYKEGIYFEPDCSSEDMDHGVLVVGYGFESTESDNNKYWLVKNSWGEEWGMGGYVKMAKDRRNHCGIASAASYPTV

[8] = Competitive inhibition of Trypanosoma brucei rhodesain in presence of varying levels of Cbz-Phe-Arg-AMC substrate by Cheng-Prusoff equation analysis
[9] = Selectivity index, ratio of Ki for human cathepsin L to Ki for competitive inhibition of Trypanosoma brucei rhodesain
[10] = Inhibition of Trypanosoma brucei rhodesain using 10 uM of Cbz-Phe-Arg-AMC as substrate by Cheng-Prusoff equation analysis
[11] = Solubility of the compound in HMI-9 medium; format: physicochemical
[12] = Solubility of the compound in PBS; format: physicochemical; conditions: buffer
[13] = Trypanosoma brucei, BS449, 72 h, read-out: EC50
[14] = Trypanosoma brucei, BS449, 72 h, read-out: pEC50 (converted)

Row | Ki [3] | inhibition (Trypanosoma brucei [6]) | Structure (SMILES) | further results
1 | 615 nM | > 50% | CC(C)(C)OC(=O)N[C@@H](Cc1ccco1)C(=O)NCC#N | 
2 | 1270 nM | > 50% | CC(C)(C)OC(=O)N[C@H](CC(=O)NC#N)Cc1ccccc1 | 
3 | 125 nM | > 50% | CC(C)(C)OC(=O)N[C@@H](Cc1c[nH]c2ccccc12)C(=O)NCC#N | 
4 | 795 nM | > 50% | CC(C)(C)OC(=O)N[C@H](C(=O)NCC#N)c1ccccc1 | 
5 | 43.8 nM | > 50% | CC(C)(C)OC(=O)N[C@@H](Cc1ccc(F)cc1)C(=O)NCC#N | EC50 ([1]; read-out: EC50): 105 µM; EC50 [2, 13]: 217 µM; EC50 [2, 14]: 217 µM; EC50 ([5]; read-out: EC50): 169 µM
6 | 1470 nM | > 50% | CC[C@H](C)[C@H](NC(=O)OC(C)(C)C)C(=O)NCC#N | 
7 | 1170 nM | > 50% | CSCC[C@H](NC(=O)OC(C)(C)C)C(=O)NCC#N | 
8 | 900 nM | > 50% | CC(C)CS(=O)(=O)CC(NC(=O)c1ccc(-c2cccs2)s1)C(=O)NCC#N (racemic) | 
9 | 52 nM | > 50% | CC(C)(C)OC(=O)N[C@@H](Cc1ccc(-c2ccccc2)cc1)C(=O)NCC#N | 
10 |  | 10% | CC[C@H](NC(=O)OC(C)(C)C)C(=O)NCC#N | 
11 | 820 nM | > 50% | CC(C)CS(=O)(=O)CC(NC(=O)c1cc(-c2ccccc2)cs1)C(=O)NCC#N (racemic) | 
12 |  | 16% | CC(C)CS(=O)(=O)CC(NC(=O)c1ccc(-c2nnn[nH]2)s1)C(=O)NCC#N (racemic) | 
13 | 12.3 nM | > 50% | CC(C)(C)OC(=O)N[C@@H](Cc1ccc(Br)cc1)C(=O)NCC#N | EC50 ([1]; read-out: EC50): 104 µM; EC50 [2, 13]: 129 µM; EC50 [2, 14]: 130 µM; EC50 ([5]; read-out: EC50): 43 µM; inhibition (Trypanosoma brucei [7]): Tde
14 | 387 nM | > 50% | CC(C)(C)OC(=O)N[C@@H](Cc1ccsc1)C(=O)NCC#N | 
15 | 750 nM | > 50% | CCCC[C@H](NC(=O)OC(C)(C)C)C(=O)NCC#N | 
16 | 1540 nM | > 50% | N#CCNC(=O)C1(NC(=O)c2ccc(-c3noc(-c4cccs4)n3)cc2)CCCCC1 | Ki (Procathepsin L): > 5 µM
17 | 27.6 nM | > 50% | CC(C)(C)OC(=O)N[C@@H](Cc1cccc(Br)c1)C(=O)NCC#N | 
18 | 42 nM | > 50% | N#CCNC(=O)[C@H](Cc1ccccc1)NC(=O)OCc1ccccc1 | EC50 ([1]; read-out: EC50): 79 µM; EC50 [2]: Nd(Unstable); Stability [4]: Unstable; EC50 ([5]; read-out: EC50): 63 µM
19 | 90 nM | > 50% | CC(C)(C)OC(=O)N[C@@H](Cc1csc2ccccc12)C(=O)NCC#N | 
20 | 73.8 nM | > 50% | CC(C)(C)OC(=O)N[C@@H](Cc1cccc(F)c1)C(=O)NCC#N | 
21 |  | 29% | CC(C)CS(=O)(=O)CC(NC(=O)c1ccc(-c2ccsc2)s1)C(=O)NCC#N (racemic) | 
22 | 26 nM | > 50% | COc1ccc(C[C@H](NC(=O)OCc2ccccc2)C(=O)NCC#N)cc1 | 
23 |  | 25% | CC(C)CS(=O)(=O)CC(NC(=O)c1cc2ccsc2s1)C(=O)NCC#N (racemic) | 
24 |  | > 50% | CC(C)C[C@H](NC(=O)c1ccc(-c2noc(-c3cccs3)n2)cc1)C(=O)NCC#N | Ki [8]: 5.3 nM; solubility [11]: Insoluble; EC50 ([1]; read-out: EC50): 10 µM; Ratio Ki [9]: 200; EC50 [2, 13]: 6 µM; EC50 [2, 14]: 6.19 µM; solubility [12]: Insoluble; EC50 ([5]; read-out: EC50): 8 µM; Ki [10]: 9.2 nM; inhibition (Trypanosoma brucei [7]): Tde
25 | 68 nM | > 50% | CC(C)(C)OC(=O)N[C@@H](CC1CCCCC1)C(=O)NCC#N | 

Further lines, the molecule ahead of its results:

Row | Structure (SMILES) | Ki [3] | inhibition (Trypanosoma brucei [6]) | further results
26 | CC(C)(C)OC(=O)N[C@@H](Cc1ccccc1F)C(=O)NCC#N | 49.2 nM | > 50% | EC50 ([1]; read-out: EC50): 70 µM; EC50 [2]: Nd(Unstable); Stability [4]: Unstable; EC50 ([5]; read-out: EC50): 77 µM
27 | CC(C)CS(=O)(=O)CC(NC(=O)c1cc2ccccc2s1)C(=O)NCC#N (racemic) |  | 15% | 
28 | CC(C)(C)OC(=O)N[C@@H](COCc1ccccc1)C(=O)NCC#N | 950 nM | > 50% | 
29 | CC(C)CS(=O)(=O)CC(NC(=O)c1cccs1)C(=O)NCC#N (racemic) |  | 9% | 
30 | CN(C)c1cccc2c(S(=O)(=O)N[C@@H](Cc3ccccc3)C(=O)NCC#N)cccc12 | 413 nM | > 50% | 
31 | CC(C)CS(=O)(=O)CC(NC(=O)c1ccc(-c2cccs2)cc1)C(=O)NCC#N (racemic) |  | 25% | 
32 | CC(C)(C)OC(=O)N[C@@H](Cc1ccc(O)cc1)C(=O)NCC#N | 47 nM | > 50% | 
33 | CN(C)c1cccc2c(S(=O)(=O)NC3(C(=O)NCC#N)CCCCC3)cccc12 |  | 11% | 
34 | N#CCNC(=O)[C@H](Cc1ccc(O)cc1)NC(=O)OCc1ccccc1 | 44.6 nM | > 50% | 
35 | CC(C)(C)OC(=O)N[C@@H](CC1CC1)C(=O)NCC#N |  | 30% | 
36 | CC(C)C[C@H](NC(=O)Nc1ccc(-c2noc(-c3cccs3)n2)cc1)C(=O)NCC#N | 172 nM | > 50% | 
37 | N#CCNC(=O)[C@H](Cc1cccc(Br)c1)NC(=O)c1ccc(-c2ccccc2)cc1 |  | > 50% | Ki [8]: 2.6 nM; Ratio Ki [9]: 200; Ki [10]: 9.2 nM; inhibition (Trypanosoma brucei [7]): Tde
38 | CC(C)(C)OC(=O)N[C@@H](Cc1ccccc1)C(=O)NCC#N | 55 nM | > 50% | 
39 | CCN(CC)c1ccc2cc(C(=O)NC3(C(=O)NCC#N)CCCCC3)c(=O)oc2c1 | 790 nM | > 50% | 
40 | CC(C)CS(=O)(=O)CC(NC(=O)c1ccc(-c2ccccc2)s1)C(=O)NCC#N (racemic) |  | 37% | 
41 | N#CCNC(=O)C1(NC(=O)OCc2ccccc2)CCCCC1 |  | 22% | Ki (Procathepsin L): > 5 µM
42 | CC(C)[C@H](NC(=O)OC(C)(C)C)C(=O)NCC#N | 1490 nM | > 50% | 
43 | N=C(NCCCCCCNC(=N)NC(=N)Nc1ccc(Cl)cc1)NC(=N)Nc1ccc(Cl)cc1 [CHLORHEXIDINE] |  |  | EC50 ([1]; read-out: EC50): 0.321 µM; EC50 ([1]; read-out: pEC50 (converted)): 0.321 µM; EC50 [2, 13]: 0.349 µM; EC50 [2, 14]: 0.35 µM; EC50 ([5]; read-out: EC50): 0.44 µM; EC50 ([5]; read-out: pEC50 (converted)): 0.441 µM
